Test results as given in article PMC12736958 (Pharmaceutics, 2025).
Where “and” joins values, the source holds several entries; their conditions need not be identical. Equal entries are not always repeated.

What was measured:
MDCK cells [1] = assay: cellular uptake study (LC-MS/MS of intracellular Cur); format: cell-based, canine; settings: 10 min incubation, 5 μg Cur-equivalent (10 μg/mL)
Protocol: MDCK cells were seeded in 24-well plates and cultured following the procedures described in Cytotoxicity Assay section. The cells were treated with 500 µL of complete DMEM medium (pH 7.4) containing crystalline Cur, amorphous Cur, binary Cur/P188 ASD (1:8, w/w), or ternary Cur/P188/TW80 or Cur/P188/SLS ASDs (1:8:1, w/w/w), at Cur-equivalent dose of 5 µg per well. After 10 min of incubation, the treatment was terminated by immediate removal of the medium. The cells were then washed three times with ice-cold PBS, lysed with 200 µL of 0.1% SDS (assisted by sonication), and dissolved in methanol at a 1:2 (v/v) ratio. The total intracellular Cur content was quantified using LC-MS/MS. All experiments were performed in quadruplicate (n = 4).
(§1) Cur quantification in cellular and rat plasma samples was carried out using a SCIEX QTRAP® 5500 LC-MS/MS system coupled with a SCIEX ExionLC^TM AC system (AB SCIEX, Framingham, MA, USA).
Separation was achieved on an Acquity UPLC® BEH C18 column (100 × 2.1 mm, 1.7 μm; Waters) maintained at 40 °C. […]
Mass spectrometric detection was performed using an IonDrive^TM Turbo V ion (SCIEX, Framingham, MA, USA) source operating in negative electrospray ionization (ESI) mode. Quantification was conducted via multiple reaction monitoring (MRM) at m/z 367.1→133.9 for Cur, and m/z 294.1→250.0 for diclofenac sodium (IS). […]

[2] = in vivo pharmacokinetic study in rats; design: species or system Sprague-Dawley (SD) rats; settings: rat; for plasma concentration of Cur, individual animals: Rat1-Rat5
Protocol: Male Sprague-Dawley (SD) rats (200 ± 20 g) were supplied by SPF Biotechnology Co., Ltd. (Beijing, China) and housed under standard laboratory conditions throughout the study. All animals were housed in a controlled environment (22 ± 2 °C, 55 ± 10% humidity) under a 12/12 h light/dark cycle, with free access to a standard laboratory rodent diet and water. A 12 h fasting period was implemented prior to the experiment, with water permitted ad libitum. All animal procedures were performed in strict accordance with protocols approved by the Biological and Medical Ethics Committee of Minzu University of China.
After fasting for 12 h (with free access to water), SD rats (n = 25) were randomly divided into five groups (n = 5 per group). Group 1: crystalline Cur (i.v., dissolved in saline with 5% DMSO). Group 2: crystalline Cur (p.o., suspended in 0.5% CMC-Na). Group 3: Cur/P188 ASD (1:8, w/w; p.o.). Group 4: Cur/P188/TW80 ASD (1:8:1, w/w/w; p.o.). Group 5: Cur/P188/SLS ASD (1:8:1, w/w/w; p.o.). Group 1 received the formulation via tail vein injection, while Groups 2–5 were suspended in water (pH 7.0) and administered orally by gavage at a Cur-equivalent dose of 40 mg/kg. Blood samples (0.2 mL) were collected from each rat at 4, 7, 10, 20, and 30 min, and 1, 2, 4, and 24 h post-dosing. Plasma was separated by centrifugation (5000 rpm, 5 min, 4 °C) and stored at −80 °C until analysis.
Cur was extracted from 50 μL of plasma using 600 μL of ethyl acetate and quantified by LC-MS/MS, with diclofenac sodium (20 μL, 200 ng/mL) serving as the internal standard. Blank plasma was obtained from a separate control group (n = 5) that received water only. Analysis of these blank samples confirmed the absence of significant matrix interference, thereby validating the analytical method.
as §1
Separation was achieved on an Acquity UPLC® BEH C18 column (100 × 2.1 mm, 1.7 μm; Waters) maintained at 40 °C. The mobile phase consisted of (A) 0.1% formic acid in water and (B) acetonitrile (ACN), delivered at a flow rate of 0.14 mL/min with the following gradient program: 10% B (0–1.0 min), increased to 95% B (1.0–9.0 min), and returned to 10% B (9.0–12.0 min). The injection volume was 5 μL. The retention times were approximately 4.85 min for Cur and 6.70 min for diclofenac sodium, used as the internal standard (IS).
Mass spectrometric detection was performed using an IonDrive^TM Turbo V ion (SCIEX, Framingham, MA, USA) source operating in negative electrospray ionization (ESI) mode. Quantification was conducted via multiple reaction monitoring (MRM) at m/z 367.1→133.9 for Cur, and m/z 294.1→250.0 for diclofenac sodium (IS). The assay was linear over the concentration range of 2-500 ng/mL (R^2 > 0.999). All data were acquired in triplicate (n = 3) and processed using MultiQuant software version 3.0.2 (AB SCIEX).
Pharmacokinetic parameters were calculated using non-compartmental analysis with DAS 2.0 software (Boying Corporation, Beijing, China). Data analysis was performed using GraphPad Prism 10.1.2 software. The result is expressed as mean ± standard deviation (SD). For pairwise comparisons between groups, t-tests were conducted. For multiple group comparisons, one-way analysis of variance (ANOVA) was performed, followed by Tukey’s post hoc test for multiple comparisons. Prior to ANOVA, the assumptions of normality and homogeneity of variances were verified using the Shapiro–Wilk test and Bartlett’s test, respectively. p < 0.05 indicates statistically significant differences.

MDCK cells [3] = assay: cytotoxicity assay (CCK-8 cell viability); format: cell-based, canine; settings: 4 h treatment
Protocol: Madin-Darby Canine Kidney (MDCK) cells were seeded in 96-well plates (1 × 10^5 cells/well) and cultured for 24 h at 37 °C in complete DMEM (10% FBS, 1% penicillin–streptomycin) under 5% CO2. Cells were treated for 4 h with 100 µL of complete DMEM media (pH 7.4) containing crystalline Cur, amorphous Cur, binary Cur/P188 ASD (1:8, w/w), or ternary Cur/P188/TW80 or Cur/P188/SLS ASDs (1:8:1, w/w/w), at Cur-equivalent concentrations of 0 (vehicle), 2, 10, 25, 50, 100, and 200 μg/mL. After treatment, cells were washed three times with PBS (pH 7.4). Cell viability was assessed using a CCK-8 assay: 100 µL of serum-free DMEM and 10 µL of CCK-8 reagent were added to each well, followed by incubation for 2 h. Absorbance was measured at 450 nm using a Multiskan GO microplate reader (Thermo Fisher Scientific, Vantaa, Finland).
Cell viability was calculated according to the following equation:Viability (%) = [(As − Aᵦ)/(Ac − Aᵦ)] × 100% where
• As is the absorbance of experimental wells (cells + treatment + CCK-8); • Ac is the absorbance of control wells (cells + medium + CCK-8, no drug); • Aᵦ is the absorbance of blank wells (medium + CCK-8, no cells, no drug).
All experiments were performed in quintuplicate (n = 5).

[4] = male, Sprague-Dawley, plasma, oral (o.p.), 40 mg/kg Cur-equivalent

## COc1cc(/C=C/C(=O)CC(=O)/C=C/c2ccc(O)c(OC)c2)ccc1O [Crystalline Cur, Curcumin]
MDCK cells [1]
  cellular uptake (% of the administered dose): 0.2%
[2]; [4]
  Cmax: 2.4 ± 0.4 ng/mL
  Tmax: 0.2 h
  half-life: 1.8 ± 0.4 h
[2]; male, Sprague-Dawley, plasma, oral (o.p.), 40 mg/kg Cur-equivalent, read-out: MRT(0–24)
  MRT last: 6.3 ± 2 h
[2]; male, Sprague-Dawley, plasma, oral, 40 mg/kg, oral 40 mg/kg relative to intravenous administration, read-out: F (absolute oral bioavailability)
  bioavailability: ~1%
[2]; male, Sprague-Dawley, plasma, po, 40 mg/kg, oral (o.p.), 40 mg/kg, 0.12 h, Rat1-Rat5, read-out: plasma concentration of Cur, individual animals
  concentration at 0.12 h: 2.6 ng/mL
[2]; male, Sprague-Dawley, plasma, po, 40 mg/kg, oral (o.p.), 40 mg/kg, 0.17 h, Rat1-Rat5, read-out: plasma concentration of Cur, individual animals
  concentration at 0.17 h: 2.8 ng/mL
[2]; oral 40 mg/kg relative to intravenous administration, 40 mg/kg
  F (absolute oral bioavailability): 0.97%
[2]; oral (o.p.), 40 mg/kg, 0.07 h
  plasma concentration of Cur, individual animals: 1.7 ng/mL and 1.4 ng/mL (2×) and 0.7 ng/mL and 1.1 ng/mL
[2]; oral (o.p.), 40 mg/kg, 0.12 h
  plasma concentration of Cur, individual animals: 2.6 ng/mL and 2.1 ng/mL and 1.6 ng/mL and 1.9 ng/mL
[2]; oral (o.p.), 40 mg/kg, 0.17 h
  plasma concentration of Cur, individual animals: 2.8 ng/mL and 2.5 ng/mL and 2.1 ng/mL and 2.0 ng/mL
[2]; oral (o.p.), 40 mg/kg, 0.33 h
  plasma concentration of Cur, individual animals: 2.5 ng/mL and 2.1 ng/mL and 2.0 ng/mL and 1.5 ng/mL and 1.0 ng/mL
[2]; oral (o.p.), 40 mg/kg, 0.5 h
  plasma concentration of Cur, individual animals: 2.2 ng/mL and 1.4 ng/mL and 1.2 ng/mL (2×) and 0.542 ng/mL
[2]; oral (o.p.), 40 mg/kg, 1 h
  plasma concentration of Cur, individual animals: 1.4 ng/mL and 0.7 ng/mL and 0.845 ng/mL and 0.9 ng/mL and 0.369 ng/mL
[2]; oral (o.p.), 40 mg/kg, 2 h
  plasma concentration of Cur, individual animals: 0.64 ng/mL and 0.9 ng/mL and 0.5 ng/mL and 0.7 ng/mL and 0.2 ng/mL
[2]; oral (o.p.), 40 mg/kg, 4 h
  plasma concentration of Cur, individual animals: 0.256 ng/mL and 0.433 ng/mL and 0.228 ng/mL and 0.35 ng/mL and 0.125 ng/mL
[2]; oral (o.p.), 40 mg/kg, 24 h
  plasma concentration of Cur, individual animals: 0.08 ng/mL and 0.056 ng/mL and 0.2 ng/mL and 0.112 ng/mL and 0.1 ng/mL
MDCK cells [3]
  concentrations with negligible toxicity: ≤ 25000 ng/mL
